Measurements reported in patent US10465167B2, “Adjuvant for rapid proliferation of human mesenchymal stem cells in vitro, method for rapid proliferation of human mesenchymal stem cells in vitro, method for growth factor harvested from rapid proliferation of human mesenchymal stem cells in vitro and use thereof” (BUDDHIST TZU CHI MEDICAL FOUNDATION, priority 2013, dated 2019).

How the values were obtained:
[1] = tested on: adipose tissue-derived stem cells; test: Cell growth density analysis, normal vs high oxygen environment; format: cell-based, human; conditions: high oxygen environment (37.5%), seventh day; FIG. 4A
Text: In this experiment, the culture conditions are divided into four groups, respectively: a culture group with a basic medium and FGF-2 in a normal oxygen environment, a culture group with a basic medium and FGF-2 in a high oxygen environment, a culture group with a basic medium and the adjuvant of the present invention in a normal oxygen environment, and a culture group with a basic medium and the adjuvant of the present invention in a high oxygen environment, wherein the high oxygen environment refers to a partial pressure of oxygen approximately equal to 37.5%, and parameters of the culture conditions (such as a basic medium, an incubator and a cell culture density) are the same as described in Section 1 of the aforementioned Experiment 1.
The cells are cleaned once by a phosphate buffer solution (PBS), and then reacted with a Trypsin-EDTA solution at 37 degrees Celsius for 5 minutes, and then the cell spatula is used to remove incompletely reacted cells carefully, and the same proportion of a medium containing a fetal bovine serum is used for neutralizing the enzyme activity of trypsin. The number of cells is measured by a cell counter (Vi-CELL AS, Beckman Coulter). […] Each set of experiment data is measured for three times, and the result is expressed in term of mean± standard deviation.

[2] = tested on: adipose tissue-derived stem cells; test: Western Blot of p21 and CDK2 proteins, normal vs high oxygen; format: cell-based, human; conditions: high oxygen environment (37.5%); FIG. 4B
Text: The culture conditions of the adipose tissue-derived stem cell are divided into four groups as described in the aforementioned section 5. The Western Blot Analysis is used for the analysis to observe the effect of the controlling and adjusting the cell cycle related proteins of the adipose tissue-derived stem cells cultured in different culture conditions on the protein expression of the cell cycle related proteins (such as p21 and CDK2). Similarly, the expression of the β-actin protein is used as a control for the standardization of quantifying each aforementioned protein expression into data.

In the case of “FGF-2: basic fibroblast growth factor, concentration of 10 ng/mL (R&D Systems), comparison culture additive”, the “total number of cells” value [1] is reported as “below 2.5×10^6” and the “expression of the p21 protein” value [2] is reported as “significant increase of the expression of the p21 protein”.
